“Also recorded” adds a separate entry of the source.
Columns and labels:
[1] = system: iPS cell-derived corneal endothelial substitute cells; test: Influence of ROCK inhibitor on tight junction formation (ZO-1 expression) during passage operation in differentiation induction; format: cell-based; conditions: 10 μM Y-27632 during passage operation; FIG. 1
Procedure: An influence of a ROCK inhibitor during the passage operation in the differentiation induction step of iPS cell-derived corneal endothelial substitute cells was investigated. According to Example 1 and Experimental Example 2 of Patent Literature 3 (10 μM Y-27632 was used as ROCK inhibitor instead of fasudil), the expression of ZO-1 was investigated.

[2] = system: iPS cells (FF-101s04 strain); test: Engraftment of iPS cells seeded in phenolphthalein derivative-added cell seeding agents (differentiation induction, fixed or changed seeding density); format: cell-based; conditions: derivative 0.22 mM, day 7; for cell engraftment at specified seeding density: seeded at 1.04×10^4 cells/cm^2; for cell engraftment at seeding number lower than specified density: seeding density lower than 1.04×10^4 cells/cm^2
Procedure: T12.5 flask (Corning Incorporated/353107) was coated with iMatrix511 (MATRIXOME, Inc./892005) at a concentration of 6 μg/mL. iPS cells (FF-101s04 strain) were suspended in AK03N+Y medium at a density of 8.0×10^3 cells/cm^2, and were seeded into the T12.5 flask. Culture was started in a CO2 incubator at 37° C., and the medium was replaced the next day with AK03N medium not containing Y-27632. After a gap of 2 days, medium exchange was performed for 2 consecutive days, and passage was performed on the 6th day of culture.
A T25 flask (Sumitomo Bakelite Co., Ltd./MS-23050) was coated with iMatrix511 (MATRIXOME, Inc./892005) at a concentration of 6 μg/mL. iPS cells were suspended in AK03N+Y medium at a density of 2.2×10^3 cells/cm^2, and were seeded into the T25 flask. Culture was started in a CO2 incubator at 37° C., and the medium was replaced the next day with AK03N medium not containing Y-27632. After a gap of 2 days, medium exchange was performed for 2 consecutive days, and passage was performed on the 6th day of culture.
DMEM/F12 non phenol red (Thermo Fisher Scientific, Inc./11039-021) was used as the basal medium, and a phenol red-free corneal endothelial substitute cell induction medium was prepared (hereinafter also to be referred to as phenol red-free medium in this Example). To the basal medium (500 mL) were added, as additives, ITS-Supplement (Ventria/777ITS091), IGF1 (OrphanPacific, Inc.; Somazone for injection/858100075, 1 mg/mL), LIF (FUJIFILM Wako Pure Chemical Corporation/125-06661), IL-6 (Miltenyi Biotec/170-076-161), IL-11 (Pepro tech/AF-200-11), TNFα (Miltenyi Biotec/170-076-178), and water-soluble HYDROCORTONE Injection (Nichi-Iko Pharmaceutical Co., Ltd./27126333) described in the following Table 1.
The phenolphthalein derivatives shown in the following Table 2, B to D, were dissolved in advance in ethanol to a concentration of 6.6×10^−6 mol/mL. 30 mL each of the phenol red-free corneal endothelial substitute cell induction medium prepared in the above-mentioned 2. was dispensed into four 50 mL tubes, and 40.5 μL of A phenolsulfonphthalein injection 0.6% (AFP) was added to one of the four tubes. Furthermore, 100 μL of B cresol red solution with adjusted concentration was added to one of the remaining three tubes. Similarly, C thymol blue solution and D bromocresol purple solution were respectively added to the remaining two tubes. A total of four different phenolphthalein derivative-containing media were prepared and used as phenolphthalein derivative-added cell seeding agents. Each seeding agent was adjusted to have a phenolphthalein derivative concentration of 0.22 mM. […]

[3] = system: iPS cell-derived corneal endothelial substitute cells; test: Influence of phenol red in cell seeding agent on engraftment, recovered cell number and survival rate in differentiation induction step; format: cell-based; conditions: with vs without phenol red
Procedure: When induction into corneal endothelial substitute cell was started, iPS cells recovered using TrypLE-Select (Thermo Fisher Scientific) were suspended in a phenol red-added cell seeding agent or phenol red no-addition cell seeding agent. A 100 mm culture dish (Sumitomo Bakelite Co., Ltd.) was coated with iMatrix 511 at a concentration of 3 μg/ml, and iPS cells suspended in each cell seeding agent were seeded at a density of 1.0×10^4 cells/cm^2. Culture was started in a CO2 incubator at 37° C., and thereafter, the medium was replaced with phenol red-added corneal endothelial substitute cell induction medium or phenol red no-addition corneal endothelial substitute cell induction medium at a frequency of once every 2 to 3 days thereafter. Culture was performed for 14 days under the above-mentioned conditions in each medium for inducing corneal endothelial substitute cells. After 3, 5, and 7 days of culture, the state of the cells was confirmed under a microscope (FIG. 2A). After culturing for 14 days, for the groups in which cell engraftment was observed under a microscope, the cells were collected and the number of cells was counted. The cells were collected after removing the culture supernatant, washed twice using DPBS (−) (Thermo Fisher Scientific), detached using Accutase (Innovative Cell Technologies), and collected into a centrifuge tube. The cells collected into the centrifuge tube were separated by centrifugation, and after adjusting the cell concentration using a medium and the like, the cell concentration and survival rate were measured using an automatic cell counter (ChemoMetec) (FIG. 2B).

[4] = system: Macaca fascicularis bullous keratopathy model; test: Transplantation of corneal endothelial substitute cell suspension into anterior chamber of bullous keratopathy model; format: in vivo
Procedure: A cell suspension of iPS cell-derived corneal endothelial substitute cells (8×10^5 cells/160 μl) obtained in Example 1 was transplanted to the anterior chamber of a Macaca fascicularis bullous keratopathy model (conducted by SHIN NIPPON BIOMEDICAL LABORATORIES, LTD.). Two types of substrates for transplantation (containing insulin, insulin-like growth factor, and the like) were prepared: one with and one without the addition of phenol red. The corneal endothelial substitute cell suspension was transplanted into the anterior chamber of the eye by the following procedure. • (1) Corneal endothelial substitute cells suspended in two types of substrates for transplantation, with and without phenol red added, were injected into the anterior chamber using a 27-gauge syringe. • (2) Macaca fascicularis was placed face down for 3 hr. • (3) After 28 days of observation, the eyeballs were collected and observed macroscopically and microscopically. Formation of a corneal endothelial substitute cell layer and corneal thickness were measured for the transplanted eye. Corneal thickness was measured using a corneal thickness measuring device (Tomey Corporation; SP-100).

C[C@@H](N)[C@H]1CC[C@H](C(=O)Nc2ccncc2)CC1 [Y-27632]
cell transformation (epithelial-to-mesenchymal transition) [1]: causes transformation that appears to be epithelial-to-mesenchymal transition
formation of tight junction (expression of ZO-1) [1]: formation of tight junction was inhibited; also recorded: inhibits the formation of tight junction

Cc1cc(C2(c3cc(C)c(O)c(Br)c3)OS(=O)(=O)c3ccccc32)cc(Br)c1O [bromocresol purple]
cell engraftment at specified seeding density [2]: Engraftment was also confirmed

Cc1cc(C2(c3ccc(O)c(C)c3)OS(=O)(=O)c3ccccc32)ccc1O [cresol red]
cell engraftment at seeding number lower than specified density [2]: cell engraftment was confirmed

O=S1(=O)OC(c2ccc(O)cc2)(c2ccc(O)cc2)c2ccccc21 [phenol red, phenolsulfonphthalein]
engraftment of cells after seeding (microscope) ([3]; 3rd, 5th, 7th day of culture, seeded at 1.0×10^4 cells/cm^2, FIG. 2A): Engraftment was clearly better
number of recovered viable cells ([3]; day 14 of culture, FIG. 2B): clearly superior
survival rate ([3]; day 14 of culture, FIG. 2B): clearly superior
engraftment and distribution of transplanted cells on posterior cornea ([4]; 8×10^5 cells/160 μl into anterior chamber, substrate with phenol red, 28 days observation, FIG. 4): engrafted on the posterior cornea and spread uniformly
corneal thickness ([4]; substrate for transplantation with phenol red, FIG. 3): a decrease in corneal thickness was observed; also recorded: corneal thickness decreased
corneal edema ([4]; substrate for transplantation with phenol red, judged from corneal thickness, FIG. 3): corneal edema was improved; also recorded: corneal edema-improving effect was observed
cell engraftment at seeding number lower than specified density [2]: cell engraftment was confirmed

Cc1cc(O)c(C(C)C)cc1C1(c2cc(C(C)C)c(O)cc2C)OS(=O)(=O)c2ccccc21 [thymol blue]
cell engraftment at specified seeding density [2]: Engraftment was also confirmed

From patent publication US20240352409A1, “CELL SEEDING AGENT AND SUBSTRATE FOR CELL TRANSPLANTATION USE” (CELLUSION INC., priority 2021, published 2024)
